Legend:
[1] = target: T1, Peroxisome proliferator-activated receptor gamma (Homo sapiens, UniProt P37231); assay: Transactivation activity at Homo sapiens (human) PPARgamma
T1 sequence (P37231 whole entry): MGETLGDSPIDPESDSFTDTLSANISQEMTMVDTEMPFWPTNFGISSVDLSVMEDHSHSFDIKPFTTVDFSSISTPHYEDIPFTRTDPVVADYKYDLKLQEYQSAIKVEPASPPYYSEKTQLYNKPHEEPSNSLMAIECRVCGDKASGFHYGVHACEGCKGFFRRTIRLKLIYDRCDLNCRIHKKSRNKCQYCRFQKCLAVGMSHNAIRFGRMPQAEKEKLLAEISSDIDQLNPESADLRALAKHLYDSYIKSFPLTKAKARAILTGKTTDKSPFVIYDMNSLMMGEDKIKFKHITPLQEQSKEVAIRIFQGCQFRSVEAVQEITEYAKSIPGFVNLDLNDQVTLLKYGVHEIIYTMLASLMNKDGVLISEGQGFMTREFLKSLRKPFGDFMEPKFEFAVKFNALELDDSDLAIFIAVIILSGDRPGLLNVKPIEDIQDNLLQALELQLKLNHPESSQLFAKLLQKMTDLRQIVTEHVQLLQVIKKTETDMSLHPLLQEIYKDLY

[2] = target: T1, Peroxisome proliferator-activated receptor gamma; assay: Transactivation activity at PPARgamma (unknown origin)

Compound | EC50 [2] | EC50 [1]
CCCc1cc(Oc2ccccc2)ccc1OCCCCOc1ccc(-c2sc(=O)[nH]c2O)cc1 [5-{4-[4-(4-Phenoxy-2-propyl-phenoxy)-butoxy]-phenyl}-thiazolidine-2,4-dione] | – | 1 µM
C/C(=N\OCCOc1ccc(Cc2sc(=O)[nH]c2O)cc1)c1ccc(-c2ccncc2)cc1 [5-(4-{2-[1-(4-Pyridin-4-yl-phenyl)-eth-(E)-ylideneaminooxy]-ethoxy}-benzyl)-thiazolidine-2,4-dione] | 1.6 µM | –
CC/C(=N\OCCOc1ccc(Cc2sc(=O)[nH]c2O)cc1)c1ccc(-c2ccccc2)cc1 [5-(4-{2-[1-Biphenyl-4-yl-prop-(E)-ylideneaminooxy]-ethoxy}-benzyl)-thiazolidine-2,4-dione] | 1.6 µM | –
O=c1[nH]c(O)c(Cc2ccc3c(c2)CC[C@H](Cc2ccccc2)O3)s1 [5-((R)-2-Benzyl-chroman-6-ylmethyl)-thiazolidine-2,4-dione] | – | 1 µM

The next lines start with results.

EC50 [2] | Compound | EC50 [1]
2.8 µM | C/C(=N\OCCOc1ccc(Cc2sc(=O)[nH]c2O)cc1)c1ccccn1 [5-(4-{2-[1-Pyridin-2-yl-eth-(E)-ylideneaminooxy]-ethoxy}-benzyl)-thiazolidine-2,4-dione] | –
2.8 µM | C/C(=N\OCCOc1ccc(Cc2sc(=O)[nH]c2O)cc1)c1cccnc1 [5-(4-{2-[1-Pyridin-3-yl-eth-(E)-ylideneaminooxy]-ethoxy}-benzyl)-thiazolidine-2,4-dione] | –
